According to ChEMBL document CHEMBL1201862, “PubChem BioAssay data set” (2004):
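48-hour exposure; five concentrations; linearly interpolated endpoints. At the GI50, growth is halved.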 The source made the active and inactive calls. Rule as the data show it: active = GI50 up to about 1.1 µM and inactive = higher.

How the values were obtained:
Test in all cases: DTP human tumour cell line panel, 48 h
U-251 = tested on: U-251
NCI/ADR-RES = tested on: NCI/ADR-RES
KM12 = tested on: KM12
UACC-62 = tested on: UACC-62
SF-295 = tested on: SF-295
HCT-116 = tested on: HCT-116
UACC-257 = tested on: UACC-257
HL-60 = tested on: HL-60
NCI-H226 = tested on: NCI-H226
EKVX = tested on: EKVX
TK-10 = tested on: TK-10
MDA-N = tested on: MDA-N
SK-MEL-28 = tested on: SK-MEL-28
A549 = tested on: A549
ACHN = tested on: ACHN
HCC 2998 = tested on: HCC 2998
MDA-MB-231 = tested on: MDA-MB-231
OVCAR-4 = tested on: OVCAR-4
SK-MEL-2 = tested on: SK-MEL-2
NCI-H522 = tested on: NCI-H522

Measured: GI50

NCCCCNCCCNC(=O)c1csc(-c2nc(CCN)sc2Cl)n1
inactive: U-251 > 100 µM | NCI/ADR-RES > 100 µM | KM12 > 100 µM | UACC-62 > 100 µM | SF-295 > 100 µM | HCT-116 > 100 µM | UACC-257 > 100 µM | HL-60 > 100 µM | NCI-H226 > 100 µM | EKVX > 100 µM | TK-10 > 100 µM | MDA-N > 100 µM | SK-MEL-28 > 100 µM | A549 > 100 µM | ACHN > 100 µM | HCC 2998 70.8 µM

Cc1[nH]nc(C(=O)N/N=C/c2cccs2)c1/N=N\N(C)C
inactive: U-251 10.3 µM | MDA-MB-231 23.1 µM | OVCAR-4 10.5 µM | NCI/ADR-RES 21.1 µM | KM12 24.1 µM | UACC-62 14 µM | SF-295 15.2 µM | HCT-116 11 µM | UACC-257 26.7 µM | HL-60 1.99 µM | NCI-H226 23.1 µM | EKVX 39.4 µM | TK-10 23.5 µM | A549 10.5 µM | ACHN 2.96 µM | SK-MEL-2 35.2 µM | NCI-H522 11.2 µM | HCC 2998 5.06 µM

CC(C)(C)OC(=O)N(CCCN)CCCCN(CCCN)C(=O)OC(C)(C)C
inactive: U-251 > 100 µM | OVCAR-4 > 100 µM | NCI/ADR-RES > 100 µM | KM12 > 100 µM | UACC-62 > 100 µM | SF-295 > 100 µM | HCT-116 > 100 µM | UACC-257 > 100 µM | HL-60 > 100 µM | NCI-H226 > 100 µM | EKVX > 100 µM | TK-10 > 100 µM | SK-MEL-28 > 100 µM | A549 > 100 µM | ACHN > 100 µM | SK-MEL-2 > 100 µM | NCI-H522 > 100 µM | HCC 2998 > 100 µM

COc1cc2c(cc1OCCN1CCN(CCOc3cc4c(cc3OC)C(=O)N3CCC[C@H]3C=N4)CC1)N=C[C@@H]1CCCN1C2=O
inactive: U-251 24.8 µM | MDA-MB-231 17.6 µM | OVCAR-4 > 100 µM | NCI/ADR-RES > 100 µM | KM12 30.8 µM | UACC-62 14.3 µM | SF-295 8.83 µM | HCT-116 29.5 µM | UACC-257 > 56.6 µM | HL-60 4.3 µM | NCI-H226 19.4 µM | EKVX > 96.6 µM | TK-10 23.8 µM | SK-MEL-28 60 µM | A549 > 88.9 µM | ACHN > 39.1 µM | SK-MEL-2 26 µM | NCI-H522 12.1 µM

CCOC(=O)[C@@]1(C)CC(O)C(=O)N1C (stereo partly drawn)
inactive: U-251 > 100 µM | MDA-MB-231 > 100 µM | OVCAR-4 > 100 µM | NCI/ADR-RES > 100 µM | KM12 > 100 µM | UACC-62 > 100 µM | SF-295 > 100 µM | HCT-116 > 100 µM | UACC-257 > 100 µM | HL-60 > 100 µM | NCI-H226 > 100 µM | EKVX > 100 µM | TK-10 > 100 µM | SK-MEL-28 > 100 µM | A549 > 100 µM | ACHN > 100 µM | SK-MEL-2 > 100 µM | NCI-H522 > 100 µM | HCC 2998 > 100 µM

CO/N=C1\CCC2(O)C3Cc4ccc(O)c5c4C2(CCN3CC2CC2)[C@H]1O5 (stereo partly drawn)
inactive: U-251 > 100 µM | MDA-MB-231 > 100 µM | OVCAR-4 > 100 µM | NCI/ADR-RES > 100 µM | KM12 > 100 µM | UACC-62 > 100 µM | SF-295 > 100 µM | HCT-116 > 100 µM | HL-60 > 100 µM | NCI-H226 > 100 µM | EKVX > 100 µM | TK-10 > 100 µM | MDA-N > 100 µM | SK-MEL-28 > 100 µM | A549 > 100 µM | ACHN > 100 µM | SK-MEL-2 > 100 µM | NCI-H522 > 100 µM

C(=C\c1ccccc1)/C=N/c1ccc2c(c1)Cc1ccccc1-2
inactive: U-251 18.7 µM | MDA-MB-231 65 µM | OVCAR-4 63.8 µM | NCI/ADR-RES 51.3 µM | KM12 > 100 µM | UACC-62 > 100 µM | SF-295 > 100 µM | HCT-116 35.9 µM | NCI-H226 > 100 µM | EKVX 49.1 µM | TK-10 60.8 µM | MDA-N 44 µM | SK-MEL-28 97.3 µM | A549 > 100 µM | ACHN > 100 µM | SK-MEL-2 57.1 µM | NCI-H522 36.8 µM

COc1ccc(S(=O)(=O)NC(CCC(=O)NN)C(=O)NN)cc1 (stereo not drawn)
inactive: U-251 > 100 µM | MDA-MB-231 > 100 µM | OVCAR-4 > 100 µM | NCI/ADR-RES > 100 µM | KM12 > 100 µM | UACC-62 > 100 µM | SF-295 > 100 µM | HCT-116 > 100 µM | UACC-257 > 100 µM | HL-60 > 100 µM | EKVX > 100 µM | TK-10 > 100 µM | MDA-N > 100 µM | SK-MEL-28 > 100 µM | A549 > 100 µM | ACHN > 100 µM | SK-MEL-2 > 100 µM | NCI-H522 > 100 µM

O=C1c2cc([N+](=O)[O-])cnc2S(=O)(=O)N1c1ccc(Oc2ccccc2)cc1
inactive: U-251 > 100 µM | MDA-MB-231 > 100 µM | OVCAR-4 > 100 µM | NCI/ADR-RES > 100 µM | KM12 > 100 µM | UACC-62 > 100 µM | SF-295 > 100 µM | HCT-116 > 100 µM | HL-60 > 100 µM | NCI-H226 > 100 µM | EKVX > 100 µM | TK-10 > 100 µM | SK-MEL-28 > 100 µM | A549 > 100 µM | ACHN > 100 µM | SK-MEL-2 > 100 µM | NCI-H522 > 100 µM | HCC 2998 > 100 µM

CN(C)CCOc1ccc2[nH]c(C(=O)N3CC(CCl)c4c3cc([N+](=O)[O-])c3ccccc43)cc2c1 (stereo not drawn)
inactive: U-251 2.06 µM | MDA-MB-231 3.23 µM | NCI/ADR-RES 1.65 µM | KM12 1.71 µM | UACC-62 2.21 µM | SF-295 2.51 µM | HCT-116 1.67 µM | UACC-257 2.01 µM | HL-60 3.2 µM | NCI-H226 54.1 µM | EKVX 3.13 µM | TK-10 1.94 µM | MDA-N 3.68 µM | SK-MEL-28 1.72 µM | ACHN 1.95 µM | SK-MEL-2 2.15 µM

CC(C)=CCC[C@@H](C)c1c2nc3ccccc3sc-2c(C)c(=O)c1O
inactive: U-251 6.38 µM | MDA-MB-231 15.1 µM | OVCAR-4 6.43 µM | NCI/ADR-RES 2.05 µM | KM12 4.6 µM | UACC-62 4.99 µM | SF-295 3.78 µM | HCT-116 3.37 µM | UACC-257 14.3 µM | HL-60 1.51 µM | NCI-H226 3.74 µM | EKVX 7.62 µM | TK-10 12.8 µM | SK-MEL-28 14.6 µM | A549 5.62 µM | ACHN 2.65 µM | SK-MEL-2 9.71 µM | NCI-H522 1.82 µM | HCC 2998 9.66 µM

c1ccc2c(NCCCCCCNc3cccc4ccccc34)cccc2c1
inactive: U-251 > 100 µM | OVCAR-4 66.1 µM | KM12 > 100 µM | UACC-62 64.6 µM | SF-295 > 100 µM | HCT-116 > 100 µM | UACC-257 > 100 µM | HL-60 51.5 µM | NCI-H226 > 100 µM | EKVX > 100 µM | TK-10 > 100 µM | SK-MEL-28 > 100 µM | A549 42 µM | ACHN > 100 µM | SK-MEL-2 > 100 µM | NCI-H522 > 100 µM | HCC 2998 > 100 µM

NC1=NN(c2ccccc2)C(=O)C1C(=O)C(=O)Nc1ccc(Cl)c(Cl)c1 (stereo not drawn)
inactive: U-251 > 100 µM | OVCAR-4 > 100 µM | KM12 > 100 µM | UACC-62 > 100 µM | SF-295 > 100 µM | HCT-116 > 100 µM | UACC-257 > 100 µM | HL-60 86.1 µM | NCI-H226 > 100 µM | EKVX > 100 µM | TK-10 > 100 µM | SK-MEL-28 > 100 µM | A549 > 100 µM | ACHN 84.5 µM | SK-MEL-2 > 100 µM | NCI-H522 84.9 µM | HCC 2998 > 100 µM

O=c1nc(Oc2c(F)c(F)c(F)c(F)c2F)ccn1C1OC(CO)C(O)C1O (stereo not drawn)
inactive: U-251 > 100 µM | MDA-MB-231 > 100 µM | OVCAR-4 > 100 µM | NCI/ADR-RES > 100 µM | KM12 > 100 µM | UACC-62 > 100 µM | SF-295 > 100 µM | HCT-116 > 100 µM | UACC-257 > 100 µM | EKVX > 100 µM | TK-10 > 100 µM | SK-MEL-28 > 100 µM | A549 > 100 µM | ACHN > 100 µM | SK-MEL-2 > 100 µM | NCI-H522 54.5 µM | HCC 2998 > 100 µM

CSc1ccc2c(cc1=O)[C@@H](NC(=O)c1ccc(Cl)cc1)CCc1cc(O)c(O)c(O)c1-2
inactive: U-251 21.8 µM | OVCAR-4 29.6 µM | KM12 40.4 µM | UACC-62 22.5 µM | SF-295 38.5 µM | HCT-116 18.2 µM | UACC-257 > 100 µM | HL-60 27.5 µM | NCI-H226 > 100 µM | EKVX 69.2 µM | TK-10 > 100 µM | SK-MEL-28 80 µM | A549 53 µM | ACHN > 100 µM | SK-MEL-2 > 100 µM | NCI-H522 15.4 µM | HCC 2998 > 100 µM
